# Patent publication US7326731B2, “Muscarinic agonists” (Eli Lilly and Company, priority 2002, dated 2008)
# Where two headings read alike, the source gives them in different places.
# Tested on: Male Sprague-Dawley rats
# Details: six-hour delay
compound,measurement,setting,value
"Nc1c2c(nc3ccccc13)CCCC2 [Tacrine, tacrine]",retention in the eight arm radial maze,3 mg/kg s.c. immediately after the sampling phase,not
same,retention in the eight arm radial maze,10 mg/kg s.c. immediately after the sampling phase,significantly improved retention
